We go through 14 molecules from EP4721758A1, “NOVEL MEDICINE FOR TREATING OSTEOSARCOMA” (Japanese Foundation For Cancer Research, priority 2023, dated 2024).

What is called IC50 is the midpoint of a concentration-inhibition curve.

One data set relates to Sa-xeno-147 cells. Description: Cell viability (CellTiter-Glo). It counts as cell-based, human. The note with it: for IC50 values: in the presence of 40 nM obatoclax, 72 hours, Fig. 4-5; for cell viability: BH3 mimetic drug sensitivity, Fig. 4-1. The protocol:
(§1) Specifically, four types of osteosarcoma cells (i.e., NOS-10 cells, Sa-xeno-147 cells, G-292 cells, and Sa-xeno-184 cells) were treated with six types of BH3 mimetics (i.e., obatoclax, navitoclax, venetoclax, A-1331852, AZD5991, and MIK665), and the cell viability of the osteosarcoma cells was measured.
(§2) Specifically, the present inventors investigated the combined effects of 40 nM obatoclax with DOX (Fig. 4-4(E), Fig. 4-5(A)), with CDDP (Fig. 4-4(F), Fig. 4-5(B)), and with MTX (Fig. 4-4(G), Fig. 4-5(C)) on cell viability in NOS-10 cells and Sa-xeno-147 cells. Cell viability was measured for each cell 72 hours after each drug treatment using CellTiter-Glo assay reagent. All data are shown as mean ± SD (n = 3). IC50 values were calculated and the data were graphed using GraphPad Prism.
(In general: ATP-based viability assays read luminescence as a measure of living cells.)

The subject of data set [1] is NOS-10 cells. The data set can be described thus: Cell viability (CellTiter-Glo). The settings on record: for IC50 values: in the presence of 40 nM obatoclax, Fig. 4-4; for IC50 value / growth inhibitory effect: IGF-1R inhibitor in combination with Mcl-1 inhibitors such as obatoclax, AZD5991, and MIK665, Fig. 5-1. It counts as cell-based, human. The protocol:
In this example, the drug sensitivity of MIK665, an Mcl-1 inhibitor, was evaluated in NOS-10 cells. Various concentrations (i.e., 0, 1, 3, 10, 30, 100, 300, 1000, 3000, 10000, 30000 nM) of MIK665 (TargetMol) were administered, and cell viability was measured using CellTiter-Glo assay reagent 72 hours after drug treatment. As a control, osteosarcoma cells MG-63 cells, without amplification of the copy number of MCL1, were used. Data are shown as MG-63 mean ± SD (n = 3).
as §1
Meanwhile, the combined effect of AZD5991 and 3 µ(micro)M Navitoclax on cell viability of NOS-10 cells was examined. Cell viability was measured using CellTiter-Glo assay reagent 72 hours after drug treatment. Data are shown as mean ± SD (n = 3).
as §2
To identify suitable combination partners of Mcl-1 inhibitors such as obatoclax for osteosarcoma treatment, further drug screening was performed using an in-house library of inhibitors in the presence of obatoclax in osteosarcoma cells. Specifically, the effect of combination of 35 nM obatoclax with an inhibitor out of 94 molecular targeted drugs in the library on cell viability of NOS-10 cells was examined. Cell viability was measured using CellTiter-Glo assay reagent 72 hours after the cells were treated with each combination of drugs. All data are shown as mean ± SD (n = 3). GraphPad Prism was used to calculate IC50 values and graph the data.

For data set [2], the system named is osteosarcoma cells. Description: Inhibitor library drug screening, cell viability (CellTiter-Glo). The format is cell-based, human. The settings on record: nine osteosarcoma cell lines and two PDC, 72 hours, heatmap Fig. 1A. The protocol: The nine human osteosarcoma cell lines (MG-63 cells, NY cells, HOS cells, HuO9 cells, HuO-3N1 cells, SJSA-1 cells, NOS-1 cells, NOS-10 cells, and G-292 clone A141B1 (G-292) cells) were purchased from the American Type Culture Collection, the RIKEN BioResource Research Center, or the Japanese Collection of Research Bioresources Cell Bank (JCRC) and used at lower passage numbers.
Specifically, • MG-63 cells, NY cells, and HOS cells were cultured in 96-well plates using MEM (Wako) comprising 10% FBS (CORNING), 1% non-essential amino acid solution (Wako), and 100 µ(micro)g/mL kanamycin (MEIJI), • HuO9 cells, HuO-3N1 cells, SJSA-1 cells, NOS-1 cells, and NOS-10 cells were cultured in 96-well plates using RPMI-1640 medium (Wako) comprising 10% FBS and 100 µ(micro)g/mL kanamycin. • G-292 clone A141B1 (G-292) cells were cultured in 96-well plate using McCoy's 5a medium comprising 10% FBS, • Sa-xeno-147 and Sa-xeno-184 cell lines were developed from patient-derived xenograft tumors and were cultured in collagen-coated dishes with RPMI 1640/Ham's F12 (1:1) medium comprising 15% FBS, 20 mM HEPES, and antibiotic-antimycotic solution (Sigma-Aldrich). Cells were cultured at 37°C and 5% CO2.
Cells were seeded in triplicate in 96-well plates (Greiner) or type I collagen-coated plates (IWAKI) at a density of 2000 cells/well and cultured for at least 24 h. After 72 hours of incubation with any of the 96 compounds of the library of the inhibitors, cells were incubated with CellTiter-Glo reagent (Promega) for 2 minutes on a Titramax 100 plate shaker (Heidolph), and after 10 minutes of equilibration, cell viability assays of each osteosarcoma cell were performed by measuring luminescence using a Tristar LB941 multimode microplate reader (Berthold Technologies). The cell viability was calculated as a ratio of the DMSO control to evaluate their effects on osteosarcoma cell proliferation (n=2).

The target of another data set is BCL-2 (Homo sapiens, UniProt P10415). The note with it: cited from earlier work.
In the next data set the target is BCL-xL (Homo sapiens, UniProt Q07817). The note with it: cited from earlier work.
The next data set concerns osteosarcoma cell lines. Description: IC50 of obatoclax, cell viability (CellTiter-Glo). It counts as cell-based. The note with it: Homo sapiens; 11 osteosarcoma cell lines; 72 hours; compared with Cmax; Fig. 4-3. The protocol: In this example, G-292 cells, NY cells, NOS-1 cells, NOS-10 cells, HuO9 cells, SJSA-1 cells, MG-63 cells, HuO-3N1 cells, HOS cells, Sa-xeno-147 cells, and Sa-xeno-184 cells were used as osteosarcoma cell lines, and LC-2/ad cells, H2228 cells, H226 cells, H3122 cells, and A549 cells were used as lung adenocarcinoma cell lines.
After 72 hours from treatment with obatoclax, the cell viability of each cell was measured using the CellTiter-Glo Assay reagent. The IC50 value was calculated using Prism software.

For data set [3] the following is noted: serum; read-out: maximum concentration of obatoclax in serum (Cmax); cited from earlier work.
The subject of data set [4] is NOS-10 cells. Description: Mouse xenograft model, tumor volume. The format is in vivo, SCID beige mice. The settings on record: obatoclax 5 mg/kg, OSI906 25 mg/kg, orally three times a week; MCL1-amplified xenograft; Fig. 6-2 (B). The protocol:
Using obatoclax or AZD5991 as an Mcl-1 inhibitor, the present inventors used mouse xenograft models of osteosarcoma with MCL1-amplified osteosarcoma (NOS-10 cells) and without MCL1-amplified osteosarcoma (Sa-xeno-147 cells) to determine the efficacy of the combination of obatoclax or AZD5991 with OSI906. To prevent side effects such as weight loss, the drugs were administered three times a week at relatively low concentrations (experimental schemes are shown in Figures 5A and 5D). The changes in tumor volume of NOS-10 cells and Sa-xeno-147 cells by treatment of drugs was examined as follows. NOS-10 cells or Sa-xeno-147 cells were subcutaneously inoculated into immunodeficient SCID beige mice (CB17.Cg-PrkdcscidLystbg-J/CrlCrlj, Charles River Laboratories, Inc.) (5-6×10^6 cells/mouse or 1×10^6 cells/mouse) and orally treated three times a week with vehicle (30% PEG400, 0.5% Tween80, 5% propylene glycol in water), with obatoclax (5 mg/kg), with OSI906 (25 mg/kg), or with obatoclax + OSI906 (5 mg/kg and 25 mg/kg, respectively). […] All data are shown as mean ± SD (n = 4, n = 5, or n = 6). *p < 0.05 and **p < 0.01 are determined using the Mann-Whitney U test.

The next data set concerns G-292 cells. The data set can be described thus: Cell viability, BH3 mimetic drug sensitivity. It counts as cell-based, human. The settings on record: cells with BCL2L1 amplification, Fig. 4-1. The protocol:
as §1

Data set [5] deals with osteosarcoma cells. The data set can be described thus: Cell viability, combined use of Mcl-1 inhibitor and Bcl-xL inhibitor. It counts as cell-based. An excerpt:
In this example, AZD5991 or MIK665 was used as an Mcl-1 inhibitor, and A-1331852 was used as a Bcl-xL inhibitor.

For the next data set, the target named is Mcl-1 (Homo sapiens, UniProt Q07820). The settings on record: cited from earlier work.
Another data set deals with Sa-xeno-184 cells. Description: Cell viability, BH3 mimetic drug sensitivity. It counts as cell-based, human. The settings on record: cells with MCL1 amplification, Fig. 4-1. The protocol:
as §1

[6] abbreviates: BH3 mimetic drug sensitivity, cells with MCL1 amplification, Fig. 4-1.

Sequence of BCL-xL (Q07817 whole entry): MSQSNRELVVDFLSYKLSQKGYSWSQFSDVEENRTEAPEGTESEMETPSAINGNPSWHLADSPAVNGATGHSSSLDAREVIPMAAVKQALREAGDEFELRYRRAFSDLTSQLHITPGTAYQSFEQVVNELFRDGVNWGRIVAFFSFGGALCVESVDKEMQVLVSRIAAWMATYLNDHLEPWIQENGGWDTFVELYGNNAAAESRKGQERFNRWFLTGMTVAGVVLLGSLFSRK
Sequence of BCL-2 (P10415 whole entry): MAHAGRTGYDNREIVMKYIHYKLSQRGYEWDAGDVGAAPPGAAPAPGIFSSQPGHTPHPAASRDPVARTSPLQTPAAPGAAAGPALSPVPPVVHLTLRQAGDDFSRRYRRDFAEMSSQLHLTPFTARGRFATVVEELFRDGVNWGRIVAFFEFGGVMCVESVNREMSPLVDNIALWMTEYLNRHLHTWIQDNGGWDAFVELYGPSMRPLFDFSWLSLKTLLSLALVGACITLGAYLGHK
Sequence of Mcl-1 (Q07820 whole entry): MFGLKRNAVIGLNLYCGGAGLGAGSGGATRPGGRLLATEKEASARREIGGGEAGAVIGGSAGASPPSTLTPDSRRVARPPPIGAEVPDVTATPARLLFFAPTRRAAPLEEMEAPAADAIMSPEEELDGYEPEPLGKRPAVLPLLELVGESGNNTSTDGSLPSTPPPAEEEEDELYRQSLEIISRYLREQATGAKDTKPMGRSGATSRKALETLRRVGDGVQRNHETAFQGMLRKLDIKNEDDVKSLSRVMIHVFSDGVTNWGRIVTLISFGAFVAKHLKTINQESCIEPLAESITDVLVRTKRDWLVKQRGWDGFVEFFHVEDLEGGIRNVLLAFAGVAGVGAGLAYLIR

On to `COc1cccc2c1C(=O)c1c(O)c3c(c(O)c1C2=O)C[C@@](O)(C(=O)CO)C[C@@H]3O[C@H]1C[C@H](N)[C@H](O)[C@H](C)O1` [DOX, Doxorubicin], for which the IC50 values entry in the data set with Sa-xeno-147 cells and in the data set with NOS-10 cells [1] (72 hours) was “not decreased” throughout.

Turning to `CC(C)C[C@H](NC(=O)[C@H](Cc1ccccc1)NC(=O)c1cnccn1)B(O)O` [bortezomib], the “osteosarcoma cell proliferation (cell viability)” value in the data set on osteosarcoma cells [2] is listed as “extensive inhibition of osteosarcoma cell proliferation”.

On to `Cc1c(-c2c(-c3ccc(F)o3)sc3ncnc(O[C@H](Cc4ccccc4OCc4ccnn4CC(F)(F)F)C(=O)O)c23)ccc(OCCN2CCN(C)CC2)c1Cl` [S63845], for which, on BCL-2, the “binding to BCL-2” value is listed as “not to bind”. In addition, the “binding to BCL-XL” value on BCL-xL is reported as “not to bind”.

`CC(C)C[C@H](NC(=O)[C@H](CCc1ccccc1)NC(=O)CN1CCOCC1)C(=O)N[C@@H](Cc1ccccc1)C(=O)N[C@@H](CC(C)C)C(=O)[C@@]1(C)CO1` [carfilzomib]: the “osteosarcoma cell proliferation (cell viability)” value in the data set with osteosarcoma cells [2] was “extensive inhibition of osteosarcoma cell proliferation”.

The molecule `COC1=CC(c2cc3ccccc3[nH]2)=N/C1=C\c1[nH]c(C)cc1C` [obatoclax] registered an IC50 in the data set on osteosarcoma cell lines of under 176 nM. In data set [3], the Cmax was 176 nM.

On to `C[C@]1(O)C[C@@H](c2nc(-c3ccc4ccc(-c5ccccc5)nc4c3)c3c(N)nccn32)C1` [OSI906], for which the tumor growth entry in the data set on NOS-10 cells [4] is “little effect on tumor growth”. Moreover, in the data set with NOS-10 cells [1] (72 hours), the IC50 value entry is “significantly reduced” and the growth inhibitory effect result was “enhanced”.

`Cc1cc(OCCCc2c3n(c4c(-c5c(C)nn(C)c5C)c(Cl)ccc24)[C@H](C)CN(c2cn(C)c4ccc(C(=O)O)cc24)C3=O)cc(C)c1Cl` [VU661013]: at BCL-2, the “inhibition of BCL-2” value is “does not significantly inhibit”. Also, on BCL-xL, the “inhibition of BCL-xL” value was “does not significantly inhibit”.

As for `Cc1c(-c2ccc(N3CCc4cccc(C(=O)Nc5nc6ccccc6s5)c4C3)nc2C(=O)O)cnn1CC12CC3CC(CC(C3)C1)C2` [A-1331852], the cell viability entry is listed as “most effective in reducing cell viability” in the data set with G-292 cells; “almost no effect on reduction of cell viability” in the data set on osteosarcoma cells [5] (A-1331852 alone, Fig. 3-5, Fig. 3-6); “strong effect on reduction of cell viability” with osteosarcoma cells [5] (A-1331852 in combination with AZD5991, Fig. 3-5); “strong effect on reduction of cell viability” in the data set with osteosarcoma cells [5] (A-1331852 in combination with MIK665, Fig. 3-6).

For the molecule `[NH2][Pt]([NH2])([Cl])[Cl]` [CDDP, cisplatin], the IC50 values entry in the data set with Sa-xeno-147 cells and in the data set on NOS-10 cells [1] (72 hours) was “not decreased” in each case.

For the molecule `O=C(c1ccccc1O)c1[nH]c(Cl)c(Cl)c1-n1c(C(=O)c2ccccc2O)cc(Cl)c1Cl` [Marinopyrrole A], the “binding to Mcl-1” value on Mcl-1 is “bind to Mcl-1”. The “binding to BCL-XL” value on BCL-xL was “not to Bcl-XL”.

With `COc1cc(N2CCC(N)CC2)ccc1Nc1ncc(Cl)c(-c2c[nH]c3ccccc23)n1` [AZD3463], in the data set on NOS-10 cells [1] (72 hours), the IC50 value result is given as “significantly reduced” and the growth inhibitory effect result was “enhanced”.

For `Cc1c2c(nn1C)CSCc1cc(n(C)n1)CSc1cc(c3ccccc3c1)OCCCc1c(C(=O)O)n(C)c3c-2c(Cl)ccc13` [AZD5991], the cell viability entry was “reduce cell viability at relatively low concentrations” in the data set with Sa-xeno-184 cells; “moderate inhibitory effects” in the data set with Sa-xeno-147 cells; “increased the inhibitory effect on cell viability” in the data set with NOS-10 cells [1] (AZD5991 combined with 3 µM Navitoclax, 72 hours, Fig. 4-2); “reduce cell viability at relatively low concentrations” in the data set on NOS-10 cells [1] (setting [6]).

For the molecule MIK665, the cell viability result is “reduce cell viability at relatively low concentrations” in the data set with Sa-xeno-184 cells; “moderate inhibitory effects” with Sa-xeno-147 cells; “reduce cell viability at relatively low concentrations” in the data set on NOS-10 cells [1] (setting [6]); “reduced cell viability” in the data set with NOS-10 cells [1] (low concentrations of MIK665 (range 0-30000 nM), 72 hours, compared to MG-63 cells without MCL1 amplification, Fig. 2).

In the case of `CN(Cc1cnc2nc(N)nc(N)c2n1)c1ccc(C(=O)N[C@@H](CCC(=O)O)C(=O)O)cc1` [MTX, methotrexate], the IC50 values entry with Sa-xeno-147 cells and in the data set on NOS-10 cells [1] (72 hours) was “not decreased” in each case.
